Reference: ChEMBL document CHEMBL3885861, “Open TG-GATES”

Species on record: Rattus norvegicus
Assay: Open TG-GATES - Regimen: Daily Repeat
Format: toxicity, organism-based, Sprague-Dawley
Parameters: regimen Daily Repeat, gender Male, age 6 weeks
Conditions: in vivo, po, 1000 mg/kg, route gavage, dose level High; for APTT / Bas / Eos / Fbg / Hb / Ht / Lym / MCH / MCHC / MCV / Mono / Neu / PT / Plat / RBC / Ret / WBC: tissue Blood
[1] = 72 h, tissue Kidney, time 3 day
[2] = 72 h, tissue Plasma, time 3 day

C[C@H]1O[C@H](O[C@H]2[C@H](O)[C@@H](O)[C@@H](O[C@H]3[C@H](O)[C@@H](O)C(O)O[C@@H]3CO)O[C@@H]2CO)[C@H](O)[C@@H](O)[C@@H]1N[C@H]1C=C(CO)[C@@H](O)[C@H](O)[C@H]1O (stereo partly specified) [ACARBOSE]
TERMINAL_BW (72 h, time 3 day): 230.8 g
APTT (72 h, time 3 day): 17.8 s
Bas (72 h, time 3 day): 0%
Eos (72 h, time 3 day): 1%
Fbg (72 h, time 3 day): 308.6 mg/dL
Hb (72 h, time 3 day): 13.5 g/dL
Ht (72 h, time 3 day): 40.6%
Lym (72 h, time 3 day): 75.8%
MCH (72 h, time 3 day): 21.2 pg
MCHC (72 h, time 3 day): 33.3%
MCV (72 h, time 3 day): 63.7 fL
Mono (72 h, time 3 day): 2.8%
Neu (72 h, time 3 day): 19.6%
PT (72 h, time 3 day): 13 s
Plat (72 h, time 3 day): 118.2 x10_4/uL
RBC (72 h, time 3 day): 638.2 x10_4/ul
Ret (72 h, time 3 day): 6.9%
WBC (72 h, time 3 day): 90.6 x10_2/uL
KIDNEY_L [1]: 1 g
KIDNEY_R [1]: 1 g
KIDNEY_TOTAL [1]: 2 g
LIVER (72 h, tissue Liver, time 3 day): 10.9 g
A/G [2]: 0.9
ALP [2]: 1494.4 IU/L
ALT [2]: 46.8 IU/L
AST [2]: 74 IU/L
BUN [2]: 13.4 mg/dL
CRE [2]: 0.2 mg/dL
Ca [2]: 10.7 mg/dL
Cl [2]: 104.2 meq/L
DBIL [2]: 0.012 mg/dL
GLC [2]: 169.8 mg/dL
IP [2]: 7.7 mg/dL
K [2]: 3.9 meq/L
LDH [2]: 95.2 IU/L
Na [2]: 140 meq/L
PL [2]: 140 mg/dL
RALB [2]: 2.6 g/dL
TBIL [2]: 0.062 mg/dL
TC [2]: 75.2 mg/dL
TG [2]: 87 mg/dL
TP [2]: 5.5 g/dL
gamma-GTP [2]: 1 IU/L
TERMINAL_BW ([…], time 7 day): 275.6 g
TERMINAL_BW ([…], time 14 day): 312 g
TERMINAL_BW ([…], time 28 day): 399.3 g
APTT ([…], time 7 day): 16.9 s
Bas ([…], time 7 day): 0%
Eos ([…], time 7 day): 1%
Fbg ([…], time 7 day): 302.6 mg/dL
Hb ([…], time 7 day): 13.6 g/dL
Ht ([…], time 7 day): 40.4%
Lym ([…], time 7 day): 79.8%
MCH ([…], time 7 day): 20.9 pg
MCHC ([…], time 7 day): 33.7%
MCV ([…], time 7 day): 62.2 fL
Mono ([…], time 7 day): 2.2%
Neu ([…], time 7 day): 16.2%
PT ([…], time 7 day): 13.1 s
Plat ([…], time 7 day): 119.8 x10_4/uL
RBC ([…], time 7 day): 649.4 x10_4/ul
Ret ([…], time 7 day): 6.1%
WBC ([…], time 7 day): 120 x10_2/uL
APTT ([…], time 14 day): 21 s
Bas ([…], time 14 day): 0%
Eos ([…], time 14 day): 1%
Fbg ([…], time 14 day): 297 mg/dL
Hb ([…], time 14 day): 14.7 g/dL
Ht ([…], time 14 day): 43.8%
Lym ([…], time 14 day): 79%
MCH ([…], time 14 day): 20.6 pg
MCHC ([…], time 14 day): 33.5%
MCV ([…], time 14 day): 61.4 fL
Mono ([…], time 14 day): 1.8%
Neu ([…], time 14 day): 17.4%
PT ([…], time 14 day): 13.3 s
Plat ([…], time 14 day): 135 x10_4/uL
RBC ([…], time 14 day): 713.4 x10_4/ul
Ret ([…], time 14 day): 4.4%
WBC ([…], time 14 day): 106.9 x10_2/uL
APTT ([…], time 28 day): 17.7 s
Bas ([…], time 28 day): 0.4%
Eos ([…], time 28 day): 1.2%
Fbg ([…], time 28 day): 283 mg/dL
Hb ([…], time 28 day): 16.2 g/dL
Ht ([…], time 28 day): 47.2%
